Assay results: PMC10827914 (Cellular and Molecular Life Sciences: CMLS, 2024)

Test system: CD13 expressed in HL-60 cells
Assay: Inhibition of cell-associated CD13 enzymatic activity, HL-60 cells
Assay type: cell-based, human
Settings: 3 × 10^5 cells/well, L-alanine p-nitroanilide, 30 min, 37 °C, absorbance 405 nm
Method: Fig. 5 Quantification of CD13 expressed by HL-60 and HUVEC by western blotting and FACS analyses, and determination of their enzymatic activity. A Western blotting (WB) analysis of CD13 expression in HL-60 cells and HUVEC. For both cell lines, 2 µg of cell lysates were loaded in each well (n = 4–5 replicates, as indicated). After blotting, the membrane was cut and analyzed for CD13 and actin expression as described in Material and methods. The results of one representative experiment, out of three independent experiments performed, are shown (bars, ratio of CD13/actin band intensity, mean ± SEM). Recombinant human CD13 (rCD13) (20 ng) was loaded as positive control. MW, molecular weight markers. B FACS analysis of CD13 expression in HUVEC and HL-60 cells. The cells were incubated with mAb WM15 (10 μg/mL) and stained with a FITC-labeled goat anti-mouse IgG (H + L) secondary antibody. Data were expressed as fluorescence intensity and normalized to the number of cells. The cumulative results of three independent experiments are shown (each performed in duplicate; mean ± SEM). C Enzyme activity assay of CD13 expressed in HUVEC and HL-60 cells. […] Absorbance at 405 nm was measured using a plate reader. The enzyme units in each sample were calculated using rCD13 as a standard and were normalized to the number of cells. […] The absorbance was measured at 405 nm using a plate reader. […]

For “VGCARRYCS-TNF [G4-TNF, recombinant murine TNF fused to the C-terminus of G4]”, the “Inhibition of CD13 enzymatic activity associated with HL-60 cells (in words)” value was “did not inhibit”.
